Test results from the supplement of paper PMC10627819.

Experiments:
[1] = test system: S. aureus DSM 20231; assay: Bliss interaction score (quartile over a dose matrix) (fitness difference); higher = more antagonism (negative = synergy)
Procedure, shortened: (§1)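 Combination data were used to infer fitness under each single drug. Fitness is the OD595 at entry into stationary phase divided by the robust mean of the plate's no-drug wells, with a cap of 1. The Bliss score is the observed minus the expected product fitness, summarised by quartiles over technical, biological and donor/recipient replicates.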

[2] = test system: S. aureus Newman; assay: as above
Procedure, shortened: as §1

[3] = test system: B. subtilis 168; assay: as above
Procedure, shortened: as §1

[4] = test system: S. pneumoniae D39V; assay: as above
Procedure, shortened: as §1

[5] = test system: B. subtilis 168; assay: fitness (endpoint OD595 vs no drug) (fraction); higher = more growth
Procedure, shortened: (§2)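 Fitness was defined as the optical density at the transition into stationary phase relative to the robust mean of no-drug control wells. Values were capped at 1. Cultures were started at OD595 0.01 in 384-well plates (30 µl, or 55 µl for S. pneumoniae) in TSB, LB Lennox or CY at 37 °C. OD595 was recorded every 30 min over 14 h, with the first reading subtracted as background.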

[6] = test system: S. pneumoniae D39V; assay: as above
Procedure, shortened: as §2
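Wherever Bliss interaction score (quartile over a dose matrix) is given: first quartile when negative (synergy) and third quartile when positive (antagonism).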

C[C@H]1c2cccc(O)c2C(=O)C2=C(O)[C@]3(O)C(=O)C(C(N)=O)=C(O)[C@@H](N(C)C)[C@@H]3[C@@H](O)[C@@H]21 [Doxycycline] + COc1c(N2C[C@@H]3CCCN[C@@H]3C2)c(F)cc2c(=O)c(C(=O)O)cn(C3CC3)c12 [Moxifloxacin]
Conditions | Bliss interaction score
[1] | 0.0965
[2] | 0.036
[3] | 0.0361
[4] | -0.0559

Conditions | fitness
[5], first compound 0.02 µg/mL, partner 0.0312 µg/mL | 0.0633
[5], first compound 0.02 µg/mL, partner 0.0625 µg/mL | 0.0369
[5], first compound 0.02 µg/mL, partner 0.125 µg/mL | 0.0526
[5], first compound 0.02 µg/mL, partner 2 µg/mL | 0.0252
[5], first compound 0.02 µg/mL, partner 4 µg/mL | 0.0301
[5], first compound 0.02 µg/mL, partner 8 µg/mL | 0.061
[5], first compound 0.04 µg/mL, partner 0.0312 µg/mL | 0.0435
[5], first compound 0.04 µg/mL, partner 0.0625 µg/mL | 0.0347
[5], first compound 0.04 µg/mL, partner 0.125 µg/mL | 0.0489
[5], first compound 0.04 µg/mL, partner 2 µg/mL | 0.0204
[5], first compound 0.04 µg/mL, partner 4 µg/mL | 0.013
[5], first compound 0.04 µg/mL, partner 8 µg/mL | 0.0253
[5], first compound 0.08 µg/mL, partner 0.0625 µg/mL | 0.03
[5], first compound 0.08 µg/mL, partner 0.125 µg/mL | 0.0215
[5], first compound 0.08 µg/mL, partner 2 µg/mL | 0.0234
[5], first compound 0.08 µg/mL, partner 4 µg/mL | 0.0247
[5], first compound 0.08 µg/mL, partner 8 µg/mL | 0.0278
[6], first compound 0.0155 µg/mL, partner 0.0037 µg/mL | 0.791
[6], first compound 0.0155 µg/mL, partner 0.005 µg/mL | 0.918
[6], first compound 0.0155 µg/mL, partner 0.0075 µg/mL | 0.838
[6], first compound 0.0155 µg/mL, partner 0.01 µg/mL | 0.919
[6], first compound 0.0155 µg/mL, partner 0.015 µg/mL | 0.857
[6], first compound 0.0155 µg/mL, partner 0.02 µg/mL | 0.834
[6], first compound 0.031 µg/mL, partner 0.005 µg/mL | 0.886
[6], first compound 0.031 µg/mL, partner 0.01 µg/mL | 0.896
[6], first compound 0.031 µg/mL, partner 0.02 µg/mL | 0.783
[6], first compound 0.062 µg/mL, partner 0.005 µg/mL | 0.807
[6], first compound 0.062 µg/mL, partner 0.01 µg/mL | 0.856
[6], first compound 0.062 µg/mL, partner 0.02 µg/mL | 0.807

fitness, [6], one replicate
Conditions | first compound 0.003875 µg/mL | first compound 0.00775 µg/mL | first compound 0.031 µg/mL | first compound 0.062 µg/mL
partner 0.0037 µg/mL | 0.939 | 0.881 | 0.692 | 0.352
partner 0.0075 µg/mL | 0.952 | 0.894 | 0.806 | 0.679
partner 0.015 µg/mL | 0.909 | 0.874 | 0.721 | 0.59

O=C(O)c1cn(C2CC2)c2cc(N3CCNCC3)c(F)cc2c1=O [Ciprofloxacin] + CC(=O)NC[C@H]1CN(c2ccc(N3CCOCC3)c(F)c2)C(=O)O1 [Linezolid]
Conditions | Bliss interaction score
[1] | 0.0785
[2] | 0.081
[3] | 0.247
[4] | 0.0563

one replicate
Conditions | fitness
[5], first compound 0.0098 µg/mL, partner 0.0625 µg/mL | 0.889
[5], first compound 0.0195 µg/mL, partner 0.0625 µg/mL | 0.856
[5], first compound 0.039 µg/mL, partner 0.0625 µg/mL | 0.417
[6], first compound 0.25 µg/mL, partner 0.2 µg/mL | 0.442
[6], first compound 0.25 µg/mL, partner 0.4 µg/mL | 0.28
[6], first compound 0.25 µg/mL, partner 0.8 µg/mL | 0.154

Conditions | fitness
[5], first compound 0.0195 µg/mL, partner 0.125 µg/mL | 0.609
[5], first compound 0.0195 µg/mL, partner 0.5 µg/mL | 0.334
[5], first compound 0.039 µg/mL, partner 0.125 µg/mL | 0.394
[5], first compound 0.039 µg/mL, partner 0.5 µg/mL | 0.263
[6], first compound 0.125 µg/mL, partner 0.105 µg/mL | 0.788
[6], first compound 0.125 µg/mL, partner 0.2 µg/mL | 0.567
[6], first compound 0.125 µg/mL, partner 0.21 µg/mL | 0.712
[6], first compound 0.125 µg/mL, partner 0.4 µg/mL | 0.298
[6], first compound 0.125 µg/mL, partner 0.42 µg/mL | 0.536
[6], first compound 0.125 µg/mL, partner 0.8 µg/mL | 0.146
[6], first compound 0.25 µg/mL, partner 0.105 µg/mL | 0.776
[6], first compound 0.25 µg/mL, partner 0.21 µg/mL | 0.7
[6], first compound 0.25 µg/mL, partner 0.42 µg/mL | 0.551
[6], first compound 0.5 µg/mL, partner 0.105 µg/mL | 0.61
[6], first compound 0.5 µg/mL, partner 0.2 µg/mL | 0.443
[6], first compound 0.5 µg/mL, partner 0.21 µg/mL | 0.569
[6], first compound 0.5 µg/mL, partner 0.4 µg/mL | 0.252
[6], first compound 0.5 µg/mL, partner 0.42 µg/mL | 0.414
[6], first compound 0.5 µg/mL, partner 0.8 µg/mL | 0.119

C[C@H]1c2cccc(O)c2C(=O)C2=C(O)[C@]3(O)C(=O)C(C(N)=O)=C(O)[C@@H](N(C)C)[C@@H]3[C@@H](O)[C@@H]21 [Doxycycline] + Cc1ncc([N+](=O)[O-])n1CCO [Metronidazole]
Conditions | Bliss interaction score
[1] | 0.0684
[2] | 0.0262
[3] | 0.0635
[4] | 0.0539

fitness
Conditions | partner 0.625 µg/mL | partner 1.073 µg/mL | partner 1.25 µg/mL | partner 2.145 µg/mL | partner 2.5 µg/mL | partner 4.29 µg/mL | partner 5 µg/mL
[5], first compound 0.02 µg/mL | 0.914 | – | 0.899 | – | 0.933 | – | –
[5], first compound 0.04 µg/mL | 0.774 | – | 0.835 | – | 0.844 | – | –
[5], first compound 0.08 µg/mL | 0.701 | – | 0.682 | – | 0.61 | – | –
[6], first compound 0.0155 µg/mL | – | 0.873 | 0.994 | 0.851 | ≥ 1 | 0.809 | 0.968
[6], first compound 0.031 µg/mL | – | 0.889 | – | 0.853 | – | 0.835 | –
[6], first compound 0.062 µg/mL | – | 0.838 | – | 0.865 | – | 0.829 | –

fitness, [6], one replicate
Conditions | first compound 0.003875 µg/mL | first compound 0.00775 µg/mL | first compound 0.031 µg/mL | first compound 0.062 µg/mL
partner 1.25 µg/mL | ≥ 1 | ≥ 1 | 0.938 | 0.775
partner 2.5 µg/mL | ≥ 1 | ≥ 1 | 0.91 | 0.794
partner 5 µg/mL | ≥ 1 | ≥ 1 | 0.892 | 0.757
